These compounds were tested against T1, human neuropeptide Y5 receptor (Homo sapiens, UniProt Q15761) (assay: NPY5 HTS centrifugation assay: competition with 125I-PYY for binding to membranes of NPY5-transfected HEK-293 cells). Conditions: 3 μM test compound; inhibition of 125I-PYY binding.
T1 construct: expressed in transfected cells; host or cells: HEK-293, stably transfected, G-418 selected; membranes
T1 sequence (Q15761 1-445): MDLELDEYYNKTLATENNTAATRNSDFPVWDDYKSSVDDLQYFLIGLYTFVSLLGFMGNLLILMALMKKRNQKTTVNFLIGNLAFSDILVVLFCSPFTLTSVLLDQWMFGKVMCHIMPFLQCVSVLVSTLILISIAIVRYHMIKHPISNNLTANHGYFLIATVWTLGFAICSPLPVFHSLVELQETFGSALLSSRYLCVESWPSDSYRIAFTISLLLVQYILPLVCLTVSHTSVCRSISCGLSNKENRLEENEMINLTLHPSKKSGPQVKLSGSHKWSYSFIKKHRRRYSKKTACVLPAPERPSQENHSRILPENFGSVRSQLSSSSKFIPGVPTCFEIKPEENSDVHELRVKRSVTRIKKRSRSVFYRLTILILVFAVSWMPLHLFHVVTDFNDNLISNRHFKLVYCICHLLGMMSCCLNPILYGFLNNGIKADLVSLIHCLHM
Experimental: NPY5 HTS Centrifugation Assay
The compounds described in this invention were evaluated for binding to the human neuropeptide Y5 receptor.
The human NPY5 receptor cDNA (Genbank Accession number U66275) was inserted into the vector pClneo (Invitrogen) and transfected into human embryonic kidney cells (HEK-293) via Calcium phosphate method (Cullen 1987). Stably transfected cells were selected with G-418 (600 ug/mL). Stably transfected cells served as the source for the membranes for the NPY5 receptor binding assay.
NPY5-transfected HEK293 cells were grown to confluence in 150 cm^2 culture dishes. Cells were washed once with phosphate-buffered saline (Gibco Cat# 14040-133). Cells were then incubated in phosphate-buffered saline without Calcium and without Magnesium, supplemented with 2 mM EDTA. Cells were incubated for 10 minutes at room temperature and the cells were collected by repetitive pipetting. Cells were formed into pellets and frozen at −80 until needed. Frozen pellets were homogenized with a polytron at full speed for 12 seconds in a homogenization buffer (20 mM Tris HCl, 5 mM EDTA, pH 7.4). Homogenates were centrifuged for 5 minutes at 4° C. at 200 g. Supernatants were transferred to corex tubes and centrifuged for 25 minutes at 28,000 g. Pellets were re-suspended in Binding (20 mM HEPES, 10 mM NaCl, 0.22 mM KH2PO4, 1.3 mM CaCl2, 0.8 mM MgSO4, pH 7.4). Membranes were kept on ice until use.
A competition binding assay, known to those skilled in the art, was used in which the test compounds (aminopyrazoles of formula (I) compete with ^1251I-PYY for binding to cell membranes. In simple terms, less ^125I-PYY bound to the membranes implies that the test compound is a good inhibitor (competitor). Bound ^1251I-PYY is determined by centrifugation the membranes, aspirating supernatant, washing away residual ^125I-PYY and subsequently counting the bound sample in a γ-counter.
Procedure for Radioligand Binding Assay
Compounds to be tested were prepared as 10× stocks in binding buffer and added first to assay tubes (RIA vials, Sarstedt). Twenty (20) μL of each 10× compound stock was pipetted into vials and 80 μL of ^125I-PYY (NEN catalog number NEX240), which had been diluted to a concentration of 200 pM in 0.25% BSA in binding buffer, was added to the compound tubes (final concentration of ^125I-PYY is 80 pM). To each tube was added 100 μL of membranes and the mixture was agitated by pipetting 2 times. Samples were incubated for 1 hr at room temperature. Aluminum cast plates (Sarstedt) containing the vials were centrifuged 10 minutes at 3200 rpm in a Sorvall RT6000. Supernatant was then aspirated. To each vial was added 400 μL PBS and the vial was then aspirated again. Vials were put in carrier polypropylene 12×75 tube and counted in gamma counter (Packard). Non-specific binding was determined in the presence of 300 nM NPY. Percent inhibition of ^125I-PYY binding was calculated by subtracting non-specific binding from the test samples (compounds of formula (I)), taking these counts and dividing by total binding, and multiplying by 100. Inhibitory concentration values (IC50) of compounds that show appreciable inhibition of ^125I-PYY binding were calculated by obtaining percent inhibition of ^125I-PYY binding values at different concentrations of the test compound, and using a graphing program such as GraphPad Prism (San Diego, Calif.) to calculate the concentration of test compound that inhibits fifty-percent of ^125I-PYY binding (Table 2). These operations are known to those skilled in the art.

Row | SMILES | % Inh NPY5 @ 3 μM [%]
1 | Cc1ccc(-n2nc(-c3ccc(N(S(=O)(=O)c4ccc(OC(F)(F)F)cc4)S(=O)(=O)c4ccc(OC(F)(F)F)cc4)cc3)cc2N)cc1 [Cmpd 29] | 16.00
2 | COC(=O)c1ccc(-c2cc(N(S(=O)(=O)c3ccc(C)cc3)S(=O)(=O)c3ccc(C)cc3)n(-c3ccc(C)cc3)n2)cc1 [Cmpd 20] | 0.00
3 | COc1ccc(S(=O)(=O)Nc2cccc(-c3cc(N)n(-c4ccc(C)cc4)n3)c2)cc1 [Cmpd 67] | 85.00
4 | Nc1cc(-c2ccc(N(S(=O)(=O)c3cccc(C(F)(F)F)c3)S(=O)(=O)c3cccc(C(F)(F)F)c3)cc2)nn1-c1ccccn1 [Cmpd 58] | 0.00
5 | Cc1ccc(-n2nc(-c3ccc(C(=O)O)cc3)cc2NS(=O)(=O)c2ccc(C)cc2)cc1 [Cmpd 21] | 16.00
6 | Cc1ccc(NC(=O)c2ccc(-c3cc(N)n(-c4ccc(C)cc4)n3)cc2)cc1 [Cmpd 33] | 0.00
7 | Nc1cc(C(=O)Nc2ccc(Cl)c(Cl)c2)nn1-c1cccc(C(F)(F)F)c1 [Cmpd 78] | 81.00
8 | Cc1ccc(-n2nc(-c3ccc(N(S(=O)(=O)c4ccc(C(F)(F)F)cc4)S(=O)(=O)c4ccc(C(F)(F)F)cc4)cc3)cc2N)cc1 [Cmpd 46] | 21.00
9 | Cc1ccc(-n2nc(-c3ccc(N(S(=O)(=O)c4cccc(C(F)(F)F)c4)S(=O)(=O)c4cccc(C(F)(F)F)c4)cc3)cc2N)cc1 [Cmpd 26] | 16.00
10 | O=C(NCc1ccccc1)c1ccc(-c2cc(NS(=O)(=O)c3ccccc3)n(-c3ccccc3)n2)cc1 [Cmpd 10] | 19.00
11 | Cc1ccc(-n2nc(-c3ccc(N(S(=O)(=O)c4cc(C(F)(F)F)cc(C(F)(F)F)c4)S(=O)(=O)c4cc(C(F)(F)F)cc(C(F)(F)F)c4)cc3)cc2N)cc1 [Cmpd 40] | 16.00
12 | COC(=O)c1ccc(-c2cc(N)n(-c3ccccc3)n2)cc1 [Cmpd 7] | 13.00
13 | COC(=O)c1ccc(-c2cc(N(S(=O)(=O)c3ccccc3)S(=O)(=O)c3ccccc3)n(-c3ccccc3)n2)cc1 [Cmpd 8] | 0
14 | O=C(Nc1ccc(F)cc1)c1ccc(-c2cc(NS(=O)(=O)c3ccccc3)n(-c3ccccc3)n2)cc1 [Cmpd 5] | 0.00
15 | Cc1ccc(-n2nc(-c3cccc(NS(=O)(=O)c4cccc(C(F)(F)F)c4)c3)cc2N)cc1 [Cmpd 69] | 20.00

Same assay, conditions: 3 μM test compound; inhibition of 125I-PYY binding; read-out: % Inh NPY5 @ 3 μM

Row | SMILES | inhibition at 3 µM [%]
16 | O=C(Nc1ccccc1)c1ccc(-c2cc(NS(=O)(=O)c3ccccc3)n(-c3ccccc3)n2)cc1 [Cmpd 4, N-Phenyl-4-[1-phenyl-5-[(phenylsulfonyl)amino]-1H-pyrazol-3-yl]benzamide] | 0
17 | Cc1ccc(-n2nc(-c3ccc(NS(=O)(=O)c4ccc(OC(F)(F)F)cc4)cc3)cc2N)cc1 [Cmpd 42] | 94
18 | COc1ccc(C(=O)Nc2ccc(-c3cc(N)n(-c4ccc(C)cc4)n3)cc2)cc1 [Cmpd 53, N-[4-[5-amino-1-(4-methylphenyl)-1H-pyrazol-3-yl]phenyl]-4-methoxy-benzamide] | 0
19 | Cc1ccc(-n2nc(-c3ccc(NS(=O)(=O)c4ccc(C(F)(F)F)cc4)cc3)cc2N)cc1 [Cmpd 47] | 82

Same assay, conditions: 30 μM test compound (stated in cell); inhibition of 125I-PYY binding

Row | SMILES | % Inh NPY5 @ 30 μM
20 | O=C(c1ccc(-c2cc(NS(=O)(=O)c3ccccc3)n(-c3ccccc3)n2)cc1)N1CCCc2ccccc21 [Cmpd 14] | (26.00 @ %

Same assay, conditions: inhibition of 125I-PYY binding; values in nM; read-out: IC50 hNPY5

Row | SMILES | IC50 [nM]
21 | Nc1cc(-c2ccc(NS(=O)(=O)c3ccccc3)cc2)nn1-c1cccc2ccccc12 [Cmpd 60] | 233
22 | COc1ccc(S(=O)(=O)Nc2ccc(-c3cc(N)n(-c4ccccn4)n3)cc2)cc1 [Cmpd 54] | 436
23 | Nc1ccccc1S(=O)(=O)NCC1CCC(c2cc(N)n(-c3cccc(C(F)(F)F)c3)n2)CC1 (stereo not shown) [Cmpd 83] | 20
24 | Cc1ccc(-n2nc(-c3ccc(NS(=O)(=O)c4ccc(OC(F)(F)F)cc4)cc3)cc2N)cc1 [Cmpd 42] | 67
25 | COc1ccc(S(=O)(=O)Nc2ccc(-c3cc(N)n(-c4cccc(N(C)C)c4)n3)cc2)cc1 [Cmpd 87] | 30
26 | Cc1ccc(-n2nc(-c3ccc(NS(=O)(=O)c4ccccc4N)cc3)cc2N)cc1 [Cmpd 64] | 229
27 | CNc1ccc(S(=O)(=O)Nc2ccc(-c3cc(NC)n(-c4ccc(C)cc4)n3)cc2)cc1 [Cmpd 75, 4-(methylamino)-N-[4-[5-(methylamino)-1-(4-methylphenyl)-1H-pyrazol-3-yl]phenyl]-benzensulfonamide] | 40
28 | COc1ccc(S(=O)(=O)Nc2ccc(-c3cc(N)n(-c4cccc(C)c4)n3)cc2)cc1 [Cmpd 71] | 37
29 | Cc1ccc(-n2nc(-c3ccc(NS(=O)(=O)c4ccc(C(F)(F)F)cc4)cc3)cc2N)cc1 [Cmpd 47] | 63
30 | Nc1cc(C(=O)Nc2cccc3cnccc23)nn1-c1cccc(C(F)(F)F)c1 [Cmpd 79, 5-amino-N-5-isoquinolinyl-1-[3-(trifluormethyl)phenyl]-1H-pyrazole-3-carboxamide] | 400
31 | Cc1cccc(-n2nc(-c3ccc(NS(=O)(=O)c4cccc(C(F)(F)F)c4)cc3)cc2N)c1 [Cmpd 73] | 23
32 | Cc1ccc(-n2nc(-c3ccc(NS(=O)(=O)c4cccc([N+](=O)[O-])c4)cc3)cc2N)cc1 [Cmpd 62] | 21
33 | Nc1cc(-c2ccc(NS(=O)(=O)c3ccc(F)cc3)cc2)nn1-c1ccccn1 [Cmpd 56] | 217
34 | CNc1cc(-c2ccc(NS(=O)(=O)c3ccc(N(C)C)cc3)cc2)nn1-c1ccc(C)cc1 [Cmpd 74] | 487
35 | Cc1ccc(-n2nc([C@H]3CC[C@H](CNS(=O)(=O)c4ccc5ccccc5c4)CC3)cc2N)cc1 [Cmpd 77, trans-N-[[4-[5-Amino-1-[4-tolyl]-1H-pyrazol-3-yl]cyclohexyl]methyl]-2-naphthylsulfonamide] | 243
36 | COc1ccc(S(=O)(=O)Nc2ccc(-c3cc(N)n(-c4nccc(C(F)(F)F)n4)n3)cc2)cc1 [Cmpd 86] | 709
37 | Cc1ccc(-n2nc(-c3ccc(NS(=O)(=O)c4ccc(Br)cc4)cc3)cc2N)cc1 [Cmpd 50] | 58

From patent publication US6531478B2, “Amino pyrazole derivatives useful for the treatment of obesity and other disorders” (priority 2000, dated 2003)
